Entries after “also recorded” stand apart in the source; their conditions may differ. Where two headings read alike, the source gives them in different places.
What was measured:
antennae of forager bees = assay: EAG assay based on RNAi (dsOBP6 feeding); parameters: species or system Apis cerana cerana; settings: for change of EAG response in dsOBP6 group versus controls: 48 h after feeding dsOBP6-2 dsRNA, p < 0.05
Procedure: The plasmid extracted in Section 2.3 was used as a template to generate 2 dsRNA fragments of AcerOBP6. Meanwhile, dsRNA was synthesized using a T7 RiboMAX™ Express RNAi System (Promega, Madison, WI, USA); the primers used for dsRNA generating are listed in Table S1. The final concentration of dsRNA generation was diluted to 2.5 μg/μL. The concentration and integrity of dsRNA were determined using NanoDrop and agarose gel electrophoresis (1%). Forager bees were collected and fed with AcerOBP6 dsRNA (8 μg for each bee), and then maintained in an artificial climate incubator (65–75% RH; 28 ± 0.4 °C). At the same time, the GFP dsRNA and 30% sugar were employed as the control groups. Each experiment group included 30 bees, and 3 biological repeats were performed. At times of 24, 48, and 96 h after feeding, the RNAi effects were verified by qRT-PCR.
The antennae of forager bees were dissected from the bottom and immediately fixed to both sides of a two-pronged electrode using Spectra 360 electrode gel (Parker Laboratories Inc., Fairfield, NJ, USA). The odorants were dissolved in liquid paraffin to final concentrations of 300 μg/μL, and liquid paraffin was adopted as a blank control. A filter paper strip (3 cm × 1cm) filled with 10 μL tested solution was prepared and put into the tube of Pasteur Pipette, which was connected with the gas feeder equipment. The stimulation time of each odor was 0.5 s and the interval was 30 s. Three technical repetitions were carried out, and ten antennae of female adults were tested for each compound. Finally, the EAGPro software (Syntech) was used to analyze the EAG response recordings.

AcerOBP6 = AcerOBP6 (Apis cerana cerana, UniProt A0A2A3ES84); format: binding; settings: for binding affinity with AcerOBP6 (in words): competitive binding with 1-NPN, ligand up to 10 µM; for Ki: Ki = [IC50]/(1 + [1-NPN]/K1-NPN), read-out: Ki (dissociation constant); for Ki / IC50: AcerOBP6 1 µM, 1-NPN 1 µM; for IC50: concentration of ligand displacing 50% 1-NPN, ligand 1-10 µM, short dash: not possible to calculate the IC50 value
Sequence of AcerOBP6 (A0A2A3ES84 entry or part of it): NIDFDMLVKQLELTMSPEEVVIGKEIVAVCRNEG
Procedure: Afterwards, the fluorescent probe N-phenyl-1-naphthylamine (1–NPN) was dissolved in methanol to yield a 1 mM stock solution. […] The binding constant of 1-NPN to AcerOBP6 (K1–NPN) was calculated using Scatchard plots of the binding data in GraphPad Prism 8.0.
Taking 1–NPN as the fluorescent reporter, we measured the binding affinity of each odorant by competitive binding assays using. All the 33 ligands (listed in Table S2) were dissolved in spectrally pure grade methanol. We titrated the odorants in a solution containing AcerOBP6 protein (1 μM) and 1–NPN (1 μM) to the final concentrations of 1–10 μM, respectively.

IC50 (AcerOBP6) [µM] | Compound | change of EAG response in dsOBP6 group versus controls (antennae of forager bees) | binding affinity with AcerOBP6 (in words) (AcerOBP6) | also measured
 | CCCCCCCCCO [1-Nonanol] | significantly decreased |  | 
 | CCCCCC(C)=O [2-Heptanone] | significantly decreased; also recorded: significant change |  | EAG response of worker bee antennae (antennae of forager bees; odorant 300 µg/µL in liquid paraffin, 10 µL on filter paper, 0.5 s stimulation): strongest response; also recorded: strong EAG responses
 | CCOC(=O)/C=C/c1ccccc1 [Ethyl cinnamate] |  | could not bind or had a weak binding affinity | 
 | CCCCC/C=C\C/C=C\CCCCCCCC(=O)OCC [Ethyl linoleate] |  | could not bind or had a weak binding affinity | 
 | CCCCCCCC/C=C\CCCCCCCC(=O)OCC [Ethyl oleate] |  | could not bind or had a weak binding affinity | 
3.93 | CCOC(=O)/C=C/c1ccccc1 [Ethyl-trans-cinnamate] |  |  | Ki (AcerOBP6; listed as ethyl-trans-cinnamate): 3.7 µM; Ki (AcerOBP6): 3.74 µM
 | CC12CCC(CC1)C(C)(C)O2 [Eucalyptol] | significantly decreased |  | 
 | CC(=O)OCCC(C)C [Isoamyl acetate] |  | could not bind or had a weak binding affinity | 
 | C=CC(C)(O)CCC=C(C)C (centres unmarked) [Linalool] | significantly decreased |  | 
 | CC/C=C\C/C=C\C/C=C\CCCCCCCC(=O)OC [Methyl linolenate] |  | could not bind or had a weak binding affinity | 
 | CCCCCCCC/C=C\CCCCCCCC(=O)OC [Methyl oleate] |  | could not bind or had a weak binding affinity | 
> 10 | CCCCCCCCCCCCCCCC(=O)OC [Methyl palmitate] |  | could not bind or had a weak binding affinity | 
 | CCCCCCCCCCCCCCCCCC(=O)OC [Methyl stearate] |  | could not bind or had a weak binding affinity | 
 | C=CC(=C)CCC=C(C)C [Myrcene] | significantly decreased |  | 
 | CCCCCCOC(C)=O [hexyl acetate] | significantly decreased |  | 
> 10 | C/C1=C\CC/C(C)=C/CC(C)(C)/C=C/C1 [α-caryophllene] |  | could not bind or had a weak binding affinity | 
> 10 | C=C/C(C)=C/C/C=C(\C)CCC=C(C)C [α-farnesene] |  | could not bind or had a weak binding affinity | 
5.54 | C=C/C(C)=C/CC=C(C)C [β-ocimene] | significantly decreased |  | Ki (AcerOBP6): 5.27 µM

Compound | IC50 (AcerOBP6) [µM] | change of EAG response in dsOBP6 group versus controls (antennae of forager bees) | binding affinity with AcerOBP6 (in words) (AcerOBP6) | also measured
CC/C=C\C/C=C\C/C=C\CCCCCCCC(=O)OCC [α-ethyl linolenic] | > 10 |  | could not bind or had a weak binding affinity | 
(+) -Cinene | 5.53 | significantly decreased |  | Ki (AcerOBP6): 5.26 µM
-Ionone | 5.45 |  |  | Ki (AcerOBP6): 5.18 µM
-Pinene | 6.67 |  |  | Ki (AcerOBP6): 6.35 µM

Source: publication PMC8622152, “Expression Profile and Ligand Screening of a Putative Odorant-Binding Protein, AcerOBP6, from the Asian Honeybee” (Insects, 2021)
